Patent US9815810B1, “Method of cannabinoid preservation through crystallization and other crystal structures” (Deep Cell […]., priority 2016, dated 2017)
Values joined by “and” are separate entries in the source; they are usually repeats but may differ in a detail not shown here. Equal values may be shown once.

Experiments:
[1] = Cannabinoid profile of the cannabis extract by LCMS analysis; conditions: cannabis extract labeled RB Fat
[2] = Cannabinoid profile of crystalline product samples by HPLC-DAD-MS analysis (cannabinoid preservation); conditions: for Cannabinoid quantity, Avg R103A-C: average of Samples R103A-C; for Cannabinoid quantity, Avg R103A-C / Cannabinoid quantity in Sample R103A / Cannabinoid quantity in Sample R103B / Cannabinoid quantity in Control R104 / Cannabinoid quantity in Sample S103: without rapid cooling process; for Cannabinoid quantity in Sample R103A / Cannabinoid quantity in Sample R103B / Cannabinoid quantity in Sample S201 / Cannabinoid quantity in Sample S103 / Cannabinoid quantity in Sample R104A / Cannabinoid quantity in (Retest) Sample R104A / Cannabinoid quantity in Sample R104B: crystalline product; for Cannabinoid quantity in Sample R103A / Cannabinoid quantity in Sample R103B: from RB Fat; for Cannabinoid quantity in Control R104: control crystalline product; for Cannabinoid quantity in Sample S201 / Cannabinoid quantity in Sample S103 / Change in cannabinoid quantity, Sample S201 compared to Sample S103: sodium chloride; for Cannabinoid quantity in Sample S201 / Cannabinoid quantity in Sample R104A / Cannabinoid quantity in (Retest) Sample R104A / Cannabinoid quantity in Sample R104B: with rapid cooling process; for Cannabinoid quantity in Sample S103: from RB-Fat; for Cannabinoid quantity in Sample R104A: original test; for Cannabinoid quantity in Sample R104B: stored for three months before being tested; for Change in cannabinoid quantity, Sample S201 compared to Sample S103: with vs without rapid cooling process

| SMILES | Cannabinoid quantity in Sample RB Fat [1] [mg/mL] | Cannabinoid quantity, Avg R103A-C ([2]; sucrose) | Cannabinoid quantity in Sample R103A ([2]; sucrose) [mg/g] | Cannabinoid quantity in Sample R103B ([2]; sucrose) [mg/g] | Cannabinoid quantity in Control R104 ([2]; sucrose) | Cannabinoid quantity in Sample S201 [2] [mg/g] | Cannabinoid quantity in Sample S103 [2] | Cannabinoid quantity in Sample R104A ([2]; sucrose) | Cannabinoid quantity in (Retest) Sample R104A ([2]; sucrose) [mg/g] | Cannabinoid quantity in Sample R104B ([2]; sucrose) [mg/g] | Change in cannabinoid quantity, Sample S201 compared to Sample S103 [2] | Increase in quantity, Sample R104A compared to the control sample ([2]; sucrose, rapid cooling process vs Control R104) [%] |
| --- | --- | --- | --- | --- | --- | --- | --- | --- | --- | --- | --- | --- |
| CCCCCc1cc2c(c(O)c1C(=O)O)[C@@H]1C=C(C)CC[C@H]1C(C)(C)O2 [THC-A, Tetrahydrocannabinolic acid] | 37.07 | 5.46 mg/g | 7.13 | 6.18 |  |  |  |  |  |  |  |  |
| CCCCCc1cc(O)c2c(c1)OC(C)(CCC=C(C)C)C=C2 (centres unmarked) [CBC, Cannabichromene] | 0.63 | 0.45 mg/g | 0.47 | 0.45 | 0.8 mg/g | 0.84 | 0.94 mg/g | 1.18 mg/g | 1.15 | 1.22 | marginal differences |  |
| CCCc1cc2c(c(O)c1C(=O)O)C1C=C(C)CCC1C(C)(C)O2 (centres unmarked) [THCV-A] | 0.26 | 0.02 mg/g | 0.05 |  | undetectable quantities |  |  | negligible or no detectable quantities |  |  |  |  |
| CCCCCc1cc(O)c(C/C=C(\C)CCC=C(C)C)c(O)c1C(=O)O [CBG-A, cannabigerolic acid] | 1.22 | no quantity of CBG-A was detected |  |  | undetectable quantities |  |  | negligible or no detectable quantities |  |  |  |  |
| CCCCCc1cc2c(c(O)c1C(=O)O)C1C3C(CCC3(C)O2)C1(C)C (centres unmarked) [CBL-A, cannabicyclol acid] | 0.38 | 0.39 mg/g | 0.46 | 0.35 |  |  |  |  |  |  |  |  |
| CCCCCc1cc(O)c2c(c1)OC(C)(C)c1ccc(C)cc1-2 [CBN, Cannabinol] | 0.3 | 1.03 mg/g | 0.93 | 1 | 0.57 mg/g | 0.79 | 2.33 mg/g | 1.17 mg/g | 1.26 | 1.28 | significant reduction |  |
| CCCc1cc(O)c2c(c1)OC(C)(C)[C@@H]1CCC(C)=C[C@@H]21 [THCV, Tetrahydrocannabivarin] |  | 0.16 mg/g | 0.14 | 0.2 | 0.34 mg/g | 0.41 | 0.51 mg/g | 0.54 mg/g | 0.52 | 0.55 | marginal differences |  |
| C=C(C)[C@@H]1CCC(C)=C[C@H]1c1c(O)cc(CCCCC)cc1O [CBD, Cannabidiol, reference compound] |  | No detectable quantities |  |  | 0.17 mg/g | 0.11 | 0.22 mg/g | 0.08 mg/g | 0.15 | 0.17 | marginal differences |  |
| C=C(C)[C@@H]1CCC(C)=C[C@H]1c1c(O)cc(CCCCC)c(C(=O)O)c1O [CBD-A, Cannabidiolic acid] | 0.12 | No detectable quantities |  |  | undetectable quantities |  |  | negligible or no detectable quantities |  |  |  |  |
| CCCCCc1cc(O)c2c(c1)OC(C)(C)[C@@H]1CC=C(C)C[C@@H]21 [Δ8-THC, Δ-8-tetrahydrocannabinol] |  | 0.06 mg/g |  |  | 1.7 mg/g |  |  | no detectable quantities | 1.36 | 0.14 |  |  |
| CCCCCc1cc(O)c2c(c1)OC(C)(C)[C@@H]1CCC(C)=C[C@@H]21 [Δ9-THC, Δ-9-tetrahydrocannabinol, reference compound] | 12.85 | 15.79 mg/g | 15.56 | 16.18 | 35.37 mg/g | 40.04 | 21.93 mg/g and 21.92 mg/g | 57.13 mg/g | 57.45 | 60.42 | two-fold increase | 62 |
| CCCCCc1cc(O)c(C/C=C(\C)CCC=C(C)C)c(O)c1 [CBG, Cannabigerol] | 0.69 | 0.28 mg/g | 0.32 | 0.26 | 0.82 mg/g | 0.93 | 0.58 mg/g | 1.34 mg/g | 1.29 | 1.25 | marginal differences |  |
